Results taken from ChEMBL document CHEMBL6087479, “Discovery of a Potent and Selective GSPT1 Molecular Glue Degrader for the Treatment of Castration-Resistant Prostate Cancer” (J Med Chem, 2025).
Active and inactive are the calls of the source. No cut-off for these calls is given here.

Assays:
CWR22R [1] = assay: Antiproliferative activity against human 22Rv1 cells assessed as inhibition of cell proliferation by CellTiter-Glo assay
LNCaP = assay: cells; conditions: Homo sapiens, 96 h
Description: Antiproliferative activity against human LNCaP cells assessed as inhibition of cell proliferation incubated for 96 hrs by CellTiter-Glo assay

CWR22R [2] = assay: cells; conditions: Homo sapiens, 22Rv1, 96 h
Description: Antiproliferative activity against human 22Rv1 cells assessed as inhibition of cell proliferation incubated for 96 hrs by CellTiter-Glo assay

LNCaP C4-2B = assay: cells; conditions: Homo sapiens, 96 h
Description: Antiproliferative activity against human LNCaP C4-2B cells assessed as inhibition of cell proliferation incubated for 96 hrs by CellTiter-Glo assay

[3] = target: Protein cereblon/Bromodomain-containing protein 4 (Homo sapiens) (UniProt O60885+Q96SW2); assay: Molecular glue degradation activity at CRBN/BRD4 in human 22Rv1 cells at 12 to 1000 nM incubated for 6 hrs by Immunoblotting analysis; assay type: cell-based; conditions: dose 12-1000 nM
Sequence of Protein cereblon/Bromodomain-containing protein 4 (Homo sapiens) (Q96SW2 whole entry, looked up, other chains not shown): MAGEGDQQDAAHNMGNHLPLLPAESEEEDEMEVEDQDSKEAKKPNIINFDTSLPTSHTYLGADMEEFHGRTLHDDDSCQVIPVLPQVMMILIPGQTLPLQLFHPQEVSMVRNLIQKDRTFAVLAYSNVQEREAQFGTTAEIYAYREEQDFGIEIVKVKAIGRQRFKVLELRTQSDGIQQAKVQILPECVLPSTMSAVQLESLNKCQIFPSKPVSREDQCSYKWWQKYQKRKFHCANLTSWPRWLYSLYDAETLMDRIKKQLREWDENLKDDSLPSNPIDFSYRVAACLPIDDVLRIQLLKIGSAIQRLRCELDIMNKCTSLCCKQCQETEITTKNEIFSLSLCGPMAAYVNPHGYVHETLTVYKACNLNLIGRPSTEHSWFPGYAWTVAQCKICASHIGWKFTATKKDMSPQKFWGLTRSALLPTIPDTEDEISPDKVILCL

[4] = target: Protein cereblon/Eukaryotic peptide chain release factor GTP-binding subunit ERF3A (Homo sapiens) (UniProt Q96SW2+P15170); assay: Protac activity at CRBN/GSPT1 in human 22Rv1 cells assessed as GSPT1 degradation at 12 to 1000 nM incubated for 6 hrs by Western blotting analysis; assay type: cell-based; conditions: dose 12-1000 nM
Sequence of Protein cereblon/Eukaryotic peptide chain release factor GTP-binding subunit ERF3A (Homo sapiens) (P15170 whole entry, looked up): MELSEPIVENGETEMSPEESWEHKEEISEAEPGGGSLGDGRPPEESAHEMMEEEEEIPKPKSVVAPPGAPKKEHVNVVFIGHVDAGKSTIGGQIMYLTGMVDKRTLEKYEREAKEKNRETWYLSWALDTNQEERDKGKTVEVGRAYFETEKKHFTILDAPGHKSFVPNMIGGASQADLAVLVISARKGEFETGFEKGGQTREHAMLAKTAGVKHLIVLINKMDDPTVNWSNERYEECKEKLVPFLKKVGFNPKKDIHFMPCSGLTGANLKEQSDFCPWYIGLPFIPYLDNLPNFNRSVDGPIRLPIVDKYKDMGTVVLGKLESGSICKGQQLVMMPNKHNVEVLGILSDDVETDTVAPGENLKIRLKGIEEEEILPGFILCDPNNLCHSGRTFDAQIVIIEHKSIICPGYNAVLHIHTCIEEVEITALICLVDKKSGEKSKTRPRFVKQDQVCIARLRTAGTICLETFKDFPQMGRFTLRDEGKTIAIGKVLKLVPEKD
Sequence of Protein cereblon/Eukaryotic peptide chain release factor GTP-binding subunit ERF3A (Homo sapiens) (Q96SW2 whole entry, looked up): as the sequence (Q96SW2 whole entry, looked up, other chains not shown) above

| SMILES | IC50 (CWR22R [1]) [µM] | IC50 (LNCaP) [µM] | IC50 (CWR22R [2]) [µM] | IC50 (LNCaP C4-2B) [µM] | Activity [3] | Activity [4] |
| --- | --- | --- | --- | --- | --- | --- |
| O=C1CCC(N2Cc3cc(CNC(=O)C(F)(F)c4ccc(Cl)cc4)ccc3C2=O)C(=O)N1 (centres undefined) | 0.016 |  |  |  |  |  |
| COc1ccc(Br)cc1S(=O)(=O)Nc1cc2c(C)noc2cc1OCC(=O)NCCCCNc1ccc2c(c1)C(=O)N(C1CCC(=O)NC1=O)C2=O (centres undefined) |  | > 10 | > 10 | > 10 |  |  |
| COc1ccc(Br)cc1S(=O)(=O)Nc1cc2c(C)noc2cc1OCC(=O)NCCCCCNc1ccc2c(c1)C(=O)N(C1CCC(=O)NC1=O)C2=O (centres undefined) |  | > 10 | > 10 | > 10 |  |  |
| COc1ccc(Br)cc1S(=O)(=O)Nc1cc2c(C)noc2cc1OCC(=O)NCCCCCNC(=O)COc1cccc2c1C(=O)N(C1CCC(=O)NC1=O)C2=O (centres undefined) |  | > 10 | > 10 | > 10 |  |  |
| COc1ccc(Br)cc1S(=O)(=O)Nc1cc2c(C)noc2cc1OCC(=O)NCCCNC(=O)COc1cccc2c1C(=O)N(C1CCC(=O)NC1=O)C2=O (centres undefined) |  | > 10 | > 10 | > 10 |  |  |
| COc1ccc(Br)cc1S(=O)(=O)Nc1cc2c(C)noc2cc1OCC(=O)NCCCNc1cccc2c1C(=O)N(C1CCC(=O)NC1=O)C2=O (centres undefined) |  | 0.1 | 0.026 | 0.624 | inactive | Active; Moderate Effect Of Degradation Observed |
| COc1ccc(Br)cc1S(=O)(=O)Nc1cc2c(C)noc2cc1OCC(=O)NCCCCNC(=O)COc1cccc2c1C(=O)N(C1CCC(=O)NC1=O)C2=O (centres undefined) |  | > 10 | > 10 | > 10 |  |  |
| COc1ccc(Br)cc1S(=O)(=O)Nc1cc2c(C)noc2cc1OCC(=O)NCCCCNc1cccc2c1C(=O)N(C1CCC(=O)NC1=O)C2=O (centres undefined) |  | 0.112 | 0.062 | 1.43 | inactive | Active; Moderate Effect Of Degradation Observed |
| COc1ccc(Br)cc1S(=O)(=O)Nc1cc2c(C)noc2cc1OCC(=O)NCCCCCCNC(=O)COc1cccc2c1C(=O)N(C1CCC(=O)NC1=O)C2=O (centres undefined) |  | > 10 | > 10 | > 10 |  |  |
